According to ChEMBL document CHEMBL1201862, “PubChem BioAssay data set” (2004):
Calls of active or inactive are those of the source.

Assays:
[1] = Shn3 3'UTR reporter inhibitors, dose response, cell-based, Clone20 osteoblasts, firefly luciferase, cherry-picked (AID 624132); assay type: functional;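 further: firefly luciferase luminescence from reporter carrying the Shn3 3'UTR in osteoblasts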
[2] = HepG2 cell cytotoxicity, dose response, cytotoxicity control for Shn3 inhibitor project, CellTiter-Glo, cherry-picked (AID 624134); assay type: functional, cell-based
[3] = control 3'UTR Renilla luciferase suppression, dose response, counter-screen for Shn3 inhibitor project, cell-based, Clone20-Shn3RL, cherry-picked (AID 624133); assay type: functional
Galanin receptor type 3 = molecular target: T1, Galanin receptor type 3 (Homo sapiens, UniProt O60755); test: Fluorescence-based cell-based primary high throughput dose response assay to identify antagonists of the Galanin Receptor 3 (GalR3).; assay type: functional
T1 sequence (O60755 whole entry): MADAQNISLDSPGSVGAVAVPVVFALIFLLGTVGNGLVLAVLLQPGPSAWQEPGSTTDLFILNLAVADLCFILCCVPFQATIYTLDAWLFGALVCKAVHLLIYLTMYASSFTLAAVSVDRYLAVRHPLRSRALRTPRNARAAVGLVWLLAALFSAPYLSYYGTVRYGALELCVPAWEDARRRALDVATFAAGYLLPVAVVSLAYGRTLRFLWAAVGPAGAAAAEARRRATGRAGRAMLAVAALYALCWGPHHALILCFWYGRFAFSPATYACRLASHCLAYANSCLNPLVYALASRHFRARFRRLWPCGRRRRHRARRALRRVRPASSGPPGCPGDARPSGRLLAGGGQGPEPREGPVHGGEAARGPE

cells [4] = assay type: functional, cell-based; conditions: HEK-CNG
[5] = molecular target: T2, COUP transcription factor 2 (Homo sapiens, UniProt P24468); test: Luminescence-based cell-based high throughput dose response assay to identify inhibitors of COUP-TFII (NR2F2).; assay type: functional;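 further: HEK293 cells transiently cotransfected with COUP-TFII expression vector and reporter; luciferase reporter luminescence driven by COUP-TFII from the pX2-168 reporter plasmid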
T2 sequence (P24468 whole entry): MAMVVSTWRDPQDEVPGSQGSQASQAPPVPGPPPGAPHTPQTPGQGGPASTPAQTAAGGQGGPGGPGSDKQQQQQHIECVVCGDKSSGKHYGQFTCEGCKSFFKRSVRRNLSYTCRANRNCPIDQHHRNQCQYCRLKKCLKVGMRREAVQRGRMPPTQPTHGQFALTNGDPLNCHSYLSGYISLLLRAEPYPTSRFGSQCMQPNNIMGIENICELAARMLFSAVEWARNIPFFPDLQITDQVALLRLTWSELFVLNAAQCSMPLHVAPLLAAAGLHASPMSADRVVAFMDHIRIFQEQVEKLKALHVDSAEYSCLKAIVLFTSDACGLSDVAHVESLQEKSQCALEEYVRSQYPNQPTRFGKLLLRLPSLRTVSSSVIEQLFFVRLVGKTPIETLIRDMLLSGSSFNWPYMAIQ

[6] = test system: Streptococcus sp. 'group A'; test: growth inhibition of control SK(-) GAS strain, dose response, counter-screen for streptokinase expression inhibitor project, luminescence, kanamycin, BacTiterGlo, confirmation (AID 1900); assay type: functional, organism-based
Streptococcus = test: Group A Streptococcus viability loss, dose response, counter-screen for streptokinase expression inhibitor project, luminescence, BacTiterGlo (AID 1915); assay type: functional, organism-based;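 further: potency for reduction of bacterial viability or growth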
Beta-galactosidase = Beta-galactosidase (Escherichia coli, UniProt Q8VNN2); test: beta-galactosidase enzyme inhibitors and activators, dose response, artefact control for CCR6 antagonist project, biochemical, E. coli enzyme, set 3 (AID 504712); assay type: functional
Sequence of Beta-galactosidase (Q8VNN2 whole entry, the tested form may be a part): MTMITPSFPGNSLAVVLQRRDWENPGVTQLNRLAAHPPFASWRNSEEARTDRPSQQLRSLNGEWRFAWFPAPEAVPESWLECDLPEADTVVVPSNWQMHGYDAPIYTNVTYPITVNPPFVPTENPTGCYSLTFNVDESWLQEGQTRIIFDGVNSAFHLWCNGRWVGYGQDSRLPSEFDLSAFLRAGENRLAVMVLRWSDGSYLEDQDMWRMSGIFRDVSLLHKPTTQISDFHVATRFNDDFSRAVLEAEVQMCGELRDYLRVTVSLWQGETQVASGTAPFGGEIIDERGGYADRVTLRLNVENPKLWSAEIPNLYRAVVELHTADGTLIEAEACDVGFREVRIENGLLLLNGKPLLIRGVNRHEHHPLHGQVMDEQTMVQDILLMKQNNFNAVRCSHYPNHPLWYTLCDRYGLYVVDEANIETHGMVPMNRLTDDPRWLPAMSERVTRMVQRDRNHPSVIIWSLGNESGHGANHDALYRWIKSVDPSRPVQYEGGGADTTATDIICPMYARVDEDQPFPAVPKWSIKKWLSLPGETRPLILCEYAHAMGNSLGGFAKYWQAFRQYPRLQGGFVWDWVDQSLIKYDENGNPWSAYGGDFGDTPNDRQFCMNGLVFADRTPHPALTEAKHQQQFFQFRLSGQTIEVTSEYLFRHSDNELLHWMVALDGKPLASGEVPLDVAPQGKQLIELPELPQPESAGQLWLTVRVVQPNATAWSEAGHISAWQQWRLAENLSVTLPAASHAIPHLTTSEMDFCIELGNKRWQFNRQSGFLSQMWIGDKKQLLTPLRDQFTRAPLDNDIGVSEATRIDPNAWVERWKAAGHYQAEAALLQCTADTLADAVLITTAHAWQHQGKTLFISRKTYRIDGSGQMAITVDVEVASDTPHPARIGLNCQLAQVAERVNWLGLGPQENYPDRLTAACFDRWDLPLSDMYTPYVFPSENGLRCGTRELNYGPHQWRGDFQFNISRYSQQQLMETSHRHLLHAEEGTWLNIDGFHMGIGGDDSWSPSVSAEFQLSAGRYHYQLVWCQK

[7] = molecular target: Photoreceptor-specific nuclear receptor (Homo sapiens, UniProt Q9Y5X4); assay type: functional, cell-based;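 further: CHO-S cells with Gal4-NCOR and VP16-NR2E3 two-hybrid luciferase reporter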
Sequence of Photoreceptor-specific nuclear receptor (Q9Y5X4 whole entry, the tested form may be a part): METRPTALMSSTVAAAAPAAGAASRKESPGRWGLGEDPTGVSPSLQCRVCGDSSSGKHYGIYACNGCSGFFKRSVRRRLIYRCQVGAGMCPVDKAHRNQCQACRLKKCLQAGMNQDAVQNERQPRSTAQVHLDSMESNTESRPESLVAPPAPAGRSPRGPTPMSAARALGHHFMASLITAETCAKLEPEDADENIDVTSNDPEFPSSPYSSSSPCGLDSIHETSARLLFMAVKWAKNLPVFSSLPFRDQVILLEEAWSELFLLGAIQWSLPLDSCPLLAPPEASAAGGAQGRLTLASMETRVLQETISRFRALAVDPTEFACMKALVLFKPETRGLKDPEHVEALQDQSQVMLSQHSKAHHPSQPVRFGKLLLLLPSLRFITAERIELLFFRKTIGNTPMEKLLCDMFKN

[8] = molecular target: T3, Small ubiquitin-related modifier 1 (Homo sapiens, UniProt P63165); test: inhibitors of SUMO1 peptide binding, dose response, biochemical, fluorescence polarization, uHTS hits (AID 624382); assay type: functional; conditions: read-out: IC50_Mean
T3 sequence (P63165 whole entry): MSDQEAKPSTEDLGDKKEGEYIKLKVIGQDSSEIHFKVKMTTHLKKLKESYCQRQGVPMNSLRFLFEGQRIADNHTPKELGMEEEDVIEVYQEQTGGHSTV

[9] = molecular target: T3, Small ubiquitin-related modifier 1; test: inhibitors of SUMO1 partner interactions, dose response, biochemical, FRET (AID 624383); assay type: functional; conditions: read-out: IC50_Mean
[10] = molecular target: Nuclear receptor subfamily 5 group A member 2 (Homo sapiens, UniProt O00482); assay type: functional, cell-based;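 further: HEK293T cells transfected with LRH-1 and a StAR promoter luciferase reporter; potency for inhibitors that lower LRH-1 driven reporter light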
Sequence of Nuclear receptor subfamily 5 group A member 2 (O00482 whole entry): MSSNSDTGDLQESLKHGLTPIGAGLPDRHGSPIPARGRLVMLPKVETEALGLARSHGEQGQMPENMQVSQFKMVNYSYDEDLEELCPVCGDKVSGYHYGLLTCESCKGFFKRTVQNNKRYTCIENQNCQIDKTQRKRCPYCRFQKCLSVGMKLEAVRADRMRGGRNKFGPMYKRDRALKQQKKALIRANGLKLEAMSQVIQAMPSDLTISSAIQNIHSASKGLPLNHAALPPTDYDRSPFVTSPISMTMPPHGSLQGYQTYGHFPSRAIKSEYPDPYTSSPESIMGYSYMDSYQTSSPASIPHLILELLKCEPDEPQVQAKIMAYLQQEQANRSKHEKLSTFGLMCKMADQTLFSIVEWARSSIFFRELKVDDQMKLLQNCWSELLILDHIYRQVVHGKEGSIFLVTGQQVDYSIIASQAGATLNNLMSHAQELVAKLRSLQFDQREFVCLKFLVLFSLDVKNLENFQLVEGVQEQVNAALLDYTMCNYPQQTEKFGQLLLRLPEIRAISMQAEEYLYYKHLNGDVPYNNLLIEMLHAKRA

Steroidogenic factor 1 = Steroidogenic factor 1 (Homo sapiens, UniProt Q13285); test: Counterscreen for inverse agonists of the liver receptor homolog-1 (LRH-1; NR5A2): Luminescence-based cell-based high throughput dose response assay to identify inverse agonists of the Steroidogenic Factor 1 Nuclear Receptor (SF1; NR5A1).; assay type: functional
Sequence of Steroidogenic factor 1 (Q13285 whole entry): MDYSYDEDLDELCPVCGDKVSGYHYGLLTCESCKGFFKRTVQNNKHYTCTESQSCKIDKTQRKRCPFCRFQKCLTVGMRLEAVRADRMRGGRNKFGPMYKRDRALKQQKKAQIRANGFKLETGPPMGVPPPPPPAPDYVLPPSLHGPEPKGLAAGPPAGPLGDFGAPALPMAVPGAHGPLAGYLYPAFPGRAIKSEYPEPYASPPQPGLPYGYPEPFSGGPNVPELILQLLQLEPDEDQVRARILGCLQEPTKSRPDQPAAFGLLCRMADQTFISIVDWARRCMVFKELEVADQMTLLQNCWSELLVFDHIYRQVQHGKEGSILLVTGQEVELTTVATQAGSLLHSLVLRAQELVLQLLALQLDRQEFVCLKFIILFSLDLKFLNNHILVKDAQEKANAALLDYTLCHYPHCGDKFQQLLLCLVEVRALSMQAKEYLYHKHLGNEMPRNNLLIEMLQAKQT

[11] = StAR promoter reporter inhibition counter-screen, dose response, counter-screen for LRH-1 inverse agonist project, cell-based, luminescence, luciferase reporter (AID 651969); assay type: functional
[12] = NIH-3T3 fibroblast cytotoxicity, dose response, cytotoxicity control, cell-based, fluorescence, Alamar Blue, secondary assay (AID 2327); assay type: functional;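 further: NIH-3T3 mouse fibroblasts cultured with fluconazole at 8 µg/mL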
BJ [13] = test: cytotoxicity toward BJ-TERT fibroblasts, dose response, cell-based, RAS-independent, luminescence (AID 1933); assay type: functional; conditions: Homo sapiens
cells [14] = assay type: functional, cell-based
BJ [15] = test: cells; assay type: functional, cell-based; conditions: Homo sapiens
[16] = C. albicans growth with fluconazole, confirmation, fluorescence, retest (AID 2467); assay type: functional, cell-based
cells [17] = assay type: functional, cell-based; remark: listed apart in the source
BJ [18] = test: cytotoxicity toward BJ-TERT-LT-ST fibroblasts, dose response, cell-based, RAS-independent, luminescence (AID 1935); assay type: functional; conditions: Homo sapiens;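 further: BJ fibroblasts immortalized with TERT plus LT and ST oncogenes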
[19] = cytotoxicity toward DRD oncogenic fibroblasts, dose response, cell-based, non-viral oncogenic, luminescence (AID 1934); assay type: functional; conditions: Homo sapiens
Nonstructural protein 1 = Nonstructural protein 1 (Influenza A virus, UniProt Q194T2); assay type: functional, Influenza A virus (A/California/07/2009(H1N1))
Sequence of Nonstructural protein 1 (Q194T2 whole entry): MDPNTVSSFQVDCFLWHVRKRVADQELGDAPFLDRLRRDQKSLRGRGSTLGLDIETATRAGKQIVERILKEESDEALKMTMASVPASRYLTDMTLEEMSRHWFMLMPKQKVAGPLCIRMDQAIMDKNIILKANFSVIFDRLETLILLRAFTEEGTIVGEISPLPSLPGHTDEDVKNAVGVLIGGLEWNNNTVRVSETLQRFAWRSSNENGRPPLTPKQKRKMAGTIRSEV

[20] = molecular target: T4, Heat shock factor protein 1 (Mus musculus, UniProt P38532); test: HSF1 potentiators in luciferase reporter cells, confirmation, cell-based, NIH3T3, luminescence, dose retest (AID 435004); assay type: functional;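 further: stress induced by proteasome inhibitor MG132 added 30 min after compound; luciferase reporter driven by HSF1 response element in NIH3T3 cells; actives raise luminescence as potentiators of the MG132 stress response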
T4 sequence (P38532 whole entry): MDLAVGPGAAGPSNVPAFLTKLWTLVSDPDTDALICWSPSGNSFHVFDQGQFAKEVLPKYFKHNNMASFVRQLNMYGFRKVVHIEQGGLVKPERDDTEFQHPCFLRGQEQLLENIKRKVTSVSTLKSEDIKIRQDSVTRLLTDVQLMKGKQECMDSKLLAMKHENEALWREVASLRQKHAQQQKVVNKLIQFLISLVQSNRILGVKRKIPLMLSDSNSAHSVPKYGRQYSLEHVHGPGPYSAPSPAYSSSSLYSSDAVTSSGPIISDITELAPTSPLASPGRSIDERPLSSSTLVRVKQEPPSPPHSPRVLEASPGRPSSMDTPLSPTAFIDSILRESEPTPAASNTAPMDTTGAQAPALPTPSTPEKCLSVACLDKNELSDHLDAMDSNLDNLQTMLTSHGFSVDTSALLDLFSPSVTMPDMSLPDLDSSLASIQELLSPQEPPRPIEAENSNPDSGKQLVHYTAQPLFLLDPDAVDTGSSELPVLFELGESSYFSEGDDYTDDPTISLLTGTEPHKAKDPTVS

[21] = molecular target: T5, Replicative DNA helicase DnaB (Mycobacterium tuberculosis, UniProt P9WMR3); test: DnaB intein splicing inhibitors, dose response, biochemical, cell-free fluorescence (AID 449749); assay type: functional
T5 sequence (P9WMR3 whole entry): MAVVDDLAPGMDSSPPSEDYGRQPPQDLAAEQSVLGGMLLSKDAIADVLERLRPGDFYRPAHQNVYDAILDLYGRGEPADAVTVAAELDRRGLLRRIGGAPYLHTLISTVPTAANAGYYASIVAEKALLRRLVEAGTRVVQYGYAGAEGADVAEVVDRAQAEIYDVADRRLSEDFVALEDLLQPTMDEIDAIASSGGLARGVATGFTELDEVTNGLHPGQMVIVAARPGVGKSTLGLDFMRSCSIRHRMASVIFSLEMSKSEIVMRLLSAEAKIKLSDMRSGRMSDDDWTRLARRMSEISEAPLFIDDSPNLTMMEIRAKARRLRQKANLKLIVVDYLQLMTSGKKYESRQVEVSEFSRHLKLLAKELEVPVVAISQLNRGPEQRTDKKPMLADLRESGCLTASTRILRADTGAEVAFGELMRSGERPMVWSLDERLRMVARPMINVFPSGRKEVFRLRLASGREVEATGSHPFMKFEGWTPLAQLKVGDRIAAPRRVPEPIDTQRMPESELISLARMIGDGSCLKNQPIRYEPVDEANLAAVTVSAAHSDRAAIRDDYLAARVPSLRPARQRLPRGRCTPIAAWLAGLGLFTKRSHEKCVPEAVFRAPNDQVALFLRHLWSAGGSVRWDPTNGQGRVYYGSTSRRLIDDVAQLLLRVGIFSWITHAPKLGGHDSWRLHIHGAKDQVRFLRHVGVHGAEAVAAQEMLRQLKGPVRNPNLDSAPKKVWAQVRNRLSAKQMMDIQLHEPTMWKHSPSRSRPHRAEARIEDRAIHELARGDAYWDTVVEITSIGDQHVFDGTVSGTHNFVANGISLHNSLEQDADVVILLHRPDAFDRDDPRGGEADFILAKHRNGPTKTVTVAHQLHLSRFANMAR

Protein RecA = molecular target: T6, Protein RecA (Mycobacterium tuberculosis, UniProt P9WHJ3); test: Fluorescence Cell-Free Homogeneous Dose Retest to Identify Inhibitors of RecA-Intein Splicing Activity. [Related pubchem assays (depositor defined):AID2097, AID2223, AID489010, AID492950]; assay type: functional
T6 sequence (P9WHJ3 whole entry): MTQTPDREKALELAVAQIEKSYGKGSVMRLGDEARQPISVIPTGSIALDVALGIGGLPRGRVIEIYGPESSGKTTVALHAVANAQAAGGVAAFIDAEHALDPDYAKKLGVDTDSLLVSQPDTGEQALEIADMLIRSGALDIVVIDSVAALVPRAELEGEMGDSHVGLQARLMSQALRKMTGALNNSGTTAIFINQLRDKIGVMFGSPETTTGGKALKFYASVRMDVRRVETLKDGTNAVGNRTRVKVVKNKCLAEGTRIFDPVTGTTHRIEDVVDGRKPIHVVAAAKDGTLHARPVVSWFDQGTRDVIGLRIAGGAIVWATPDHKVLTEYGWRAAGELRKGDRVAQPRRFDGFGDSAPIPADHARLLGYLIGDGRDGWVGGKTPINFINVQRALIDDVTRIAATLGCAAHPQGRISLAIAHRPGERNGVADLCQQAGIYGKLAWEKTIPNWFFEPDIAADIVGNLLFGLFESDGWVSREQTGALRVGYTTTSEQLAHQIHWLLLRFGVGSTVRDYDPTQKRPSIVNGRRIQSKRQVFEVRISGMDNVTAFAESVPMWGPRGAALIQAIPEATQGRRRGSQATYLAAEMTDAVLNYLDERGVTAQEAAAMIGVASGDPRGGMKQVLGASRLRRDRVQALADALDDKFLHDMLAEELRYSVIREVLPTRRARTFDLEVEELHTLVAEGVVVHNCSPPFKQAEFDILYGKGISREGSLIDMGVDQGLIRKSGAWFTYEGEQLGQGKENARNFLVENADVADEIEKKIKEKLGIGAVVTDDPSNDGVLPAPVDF

INS1 = test: beta cell apoptosis inhibitors, cytokine rescue, dose response, luminescence, retest (AID 449756); assay type: functional, cell-based; conditions: Rattus norvegicus;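 further: cell death triggered by IL-1 beta plus TNF-alpha plus IFN-gamma mixture; protective hits raise ATP signal compared with cytokine alone wells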
[22] = molecular target: Dual specificity tyrosine-phosphorylation-regulated kinase 1A (Rattus norvegicus, UniProt Q63470); assay type: biochemical, Homo sapiens
Paired box protein Pax-8 = Paired box protein Pax-8 (Homo sapiens, UniProt Q06710); test: inhibitors of PAX8-driven TPO luciferase reporter, dose response, RMG-I cells, cherry-pick (AID 687027); assay type: functional, cell-based;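 further: luciferase reporter driven by Pax8 target thyroperoxidase promoter measured by SteadyGlo luminescence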
Sequence of Paired box protein Pax-8 (Q06710 whole entry): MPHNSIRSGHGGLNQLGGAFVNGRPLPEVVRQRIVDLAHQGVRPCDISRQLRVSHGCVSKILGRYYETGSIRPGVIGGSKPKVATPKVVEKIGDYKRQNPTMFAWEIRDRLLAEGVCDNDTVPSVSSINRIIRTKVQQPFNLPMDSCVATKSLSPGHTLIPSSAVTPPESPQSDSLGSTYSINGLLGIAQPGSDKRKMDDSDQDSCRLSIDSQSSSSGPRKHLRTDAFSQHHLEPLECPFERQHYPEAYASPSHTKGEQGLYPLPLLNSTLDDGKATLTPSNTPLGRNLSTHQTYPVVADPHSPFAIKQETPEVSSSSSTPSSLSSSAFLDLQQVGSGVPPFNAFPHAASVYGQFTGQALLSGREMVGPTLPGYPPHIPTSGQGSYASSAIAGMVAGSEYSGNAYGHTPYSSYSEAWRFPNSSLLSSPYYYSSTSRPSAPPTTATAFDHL

S=C(NCCc1ccccc1)Nc1cccc2cnccc12
AC50 [1]: 0.922 µM (active)
AC50 [2]: 2.49 µM (active)
AC50 [3]: 1.05 µM (active)
IC50 (Galanin receptor type 3): 1.66 µM (active)
EC50 (cells [4]): > 29.9 µM (inactive)
IC50 [5]: 7.44 µM (active)

Cc1ccc(Cc2cnc(N3C(=N)SC(C)C3=O)s2)cc1 (stereo not drawn)
EC50 [6]: 0.574 µM (active)
EC50 (Streptococcus): 3.44 µM (active)
IC50 (Beta-galactosidase): > 66.6 µM (inactive)
IC50 [7]: 1.89 µM (active)

CC(=O)c1cccc(NC(=O)c2cccc(N3C(=O)c4ccccc4C3=O)c2)c1
IC50 [8]: > 66.6 µM (inactive)
IC50 [9]: 8.03 µM (active)

CCOc1ccc(NC(=O)COC(=O)CC2CCCCC2)cc1
IC50 [10]: 35.9 µM (inactive)
IC50 (Steroidogenic factor 1): 35.9 µM (inactive)
IC50 [11]: 35.9 µM (inactive)

Oc1[nH]c2ccc(Br)cc2c1N=NC(=S)N1CCOCC1
EC50 [12]: > 150 µM (inconclusive)
EC50 [6]: < 0.06 µM (active)
EC50 (BJ [13]): 1.81 µM (inconclusive)
EC50 (cells [14]): 137 µM (active)
EC50 (BJ [15]): 12.8 µM (inconclusive)
EC50 [16]: 3.18 µM (active)
EC50 (cells [17]): > 350 µM (not active)
EC50 (BJ [18]): 5.1 µM (inconclusive)
EC50 [19]: 7.46 µM (inconclusive)
EC50 (Streptococcus): 0.167 µM (active)
IC50 (Nonstructural protein 1): 19.9 µM (active)
EC50 [20]: > 260 µM (inactive)
AC50 [21]: > 380 µM (inactive)
EC50 (Protein RecA): 22.7 µM (active)
AC50 (INS1): 1.6 µM (active)
AC50 [22]: 7.39 µM (active)
IC50 [7]: 1.81 µM (active)
AC50 (Paired box protein Pax-8): 1.55 µM (active)

C=CCCC(=O)Nc1nc(C)c(-c2csc(Nc3cccc(OC)c3)n2)s1
IC50 [8]: > 66.6 µM (inactive)
IC50 [9]: 17.7 µM (active)

Cc1cc(Br)ccc1NC(=O)CN1C(=O)CCC1=O
IC50 [10]: 12 µM (inactive)
IC50 (Steroidogenic factor 1): 0.877 µM (active)
IC50 [11]: 35.9 µM (inactive)

COC(=O)c1ccc(CNC(=O)COC(=O)c2cc(Cl)nc(Cl)c2)cc1
IC50 [10]: 12 µM (inactive)
IC50 (Steroidogenic factor 1): 12 µM (inactive)
IC50 [11]: 35.9 µM (inactive)

O=C(CCS(=O)(=O)c1ccc(Br)cc1)N1CCCCCC1
IC50 [8]: > 66.6 µM (inactive)
IC50 [9]: 13 µM (active)
